Source: ChEMBL document CHEMBL4325871 (Eur J Med Chem, 2019)
Active and inactive are the calls of the source. The rule behind the calls is not given here.

Assays:
[1] = target: T1, Serine/threonine-protein kinase Chk1 (Homo sapiens) (UniProt O14757); experiment: Inhibition of CHK1 phosphorylation at S317 residue in human HCT116 cells at 20 uM after 8 hrs by Western blot analysis; format: cell-based
T1 sequence (whole entry): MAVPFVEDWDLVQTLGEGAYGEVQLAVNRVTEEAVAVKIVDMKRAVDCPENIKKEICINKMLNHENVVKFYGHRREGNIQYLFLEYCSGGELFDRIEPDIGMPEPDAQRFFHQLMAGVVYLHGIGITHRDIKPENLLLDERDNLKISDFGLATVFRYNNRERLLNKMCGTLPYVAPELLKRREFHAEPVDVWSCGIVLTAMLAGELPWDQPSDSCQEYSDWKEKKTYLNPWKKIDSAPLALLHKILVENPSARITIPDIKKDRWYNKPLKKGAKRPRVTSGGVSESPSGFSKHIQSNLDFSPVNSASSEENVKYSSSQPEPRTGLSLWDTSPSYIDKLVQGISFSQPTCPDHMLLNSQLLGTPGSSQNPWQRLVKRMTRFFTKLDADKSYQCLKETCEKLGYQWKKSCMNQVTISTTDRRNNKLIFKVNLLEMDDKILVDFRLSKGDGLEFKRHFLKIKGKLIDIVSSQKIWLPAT

[2] = target: Myosin-IIIa (Homo sapiens) (UniProt Q8NEV4); experiment: Inhibition of human MYO3A assessed as residual activity at 1 uM using MBP as substrate by [gamma-33P]-ATP assay relative to control
[3] = target: Serine/threonine-protein kinase 24 (Homo sapiens) (UniProt Q9Y6E0); experiment: Inhibition of human MST3 assessed as residual activity at 1 uM using MBP as substrate by [gamma-33P]-ATP assay relative to control
[4] = target: Serine/threonine-protein kinase N2 (Homo sapiens) (UniProt Q16513); experiment: Inhibition of human PKN2 assessed as residual activity at 1 uM using KKLNRTLSVA as substrate by [gamma-33P]-ATP assay relative to control
[5] = target: Casein kinase I isoform epsilon (Homo sapiens) (UniProt P49674); experiment: Inhibition of human CK1E assessed as residual activity at 1 uM using KRRRAL[pS]VASLPGL as substrate by [gamma-33P]-ATP assay relative to control
TGF-beta receptor type-2 = TGF-beta receptor type-2 (Homo sapiens, UniProt P37173); experiment: Inhibition of human TGFBR2 assessed as residual activity at 1 uM using MBP as substrate by [gamma-33P]-ATP assay relative to control
[6] = target: Kinase suppressor of Ras 2 (Homo sapiens) (UniProt Q6VAB6); experiment: Inhibition of human KSR2 assessed as residual activity at 1 uM using KRREILSRRPSYR as substrate by [gamma-33P]-ATP assay relative to control
[7] = target: Aurora kinase B (Homo sapiens) (UniProt Q96GD4); experiment: Inhibition of human Aurora B assessed as residual activity at 1 uM using [H-LRRASLG] as substrate by [gamma-33P]-ATP assay relative to control
[8] = target: Macrophage-stimulating protein receptor (Homo sapiens) (UniProt Q04912); experiment: Inhibition of human RON assessed as residual activity at 1 uM using KKSRGDYMTMQIG as substrate by [gamma-33P]-ATP assay relative to control
[9] = target: T1, Serine/threonine-protein kinase Chk1 (Homo sapiens); experiment: Inhibition of CHK1 phosphorylation at S296 residue in human HCT116 cells at 20 uM after 8 hrs by Western blot analysis; format: cell-based
[10] = target: Tyrosine-protein kinase ITK/TSK (Homo sapiens) (UniProt Q08881); experiment: Inhibition of human ITK assessed as residual activity at 1 uM using MBP as substrate by [gamma-33P]-ATP assay relative to control
Tyrosine-protein kinase ITK/TSK (Homo sapiens), sequence (Q08881 whole entry): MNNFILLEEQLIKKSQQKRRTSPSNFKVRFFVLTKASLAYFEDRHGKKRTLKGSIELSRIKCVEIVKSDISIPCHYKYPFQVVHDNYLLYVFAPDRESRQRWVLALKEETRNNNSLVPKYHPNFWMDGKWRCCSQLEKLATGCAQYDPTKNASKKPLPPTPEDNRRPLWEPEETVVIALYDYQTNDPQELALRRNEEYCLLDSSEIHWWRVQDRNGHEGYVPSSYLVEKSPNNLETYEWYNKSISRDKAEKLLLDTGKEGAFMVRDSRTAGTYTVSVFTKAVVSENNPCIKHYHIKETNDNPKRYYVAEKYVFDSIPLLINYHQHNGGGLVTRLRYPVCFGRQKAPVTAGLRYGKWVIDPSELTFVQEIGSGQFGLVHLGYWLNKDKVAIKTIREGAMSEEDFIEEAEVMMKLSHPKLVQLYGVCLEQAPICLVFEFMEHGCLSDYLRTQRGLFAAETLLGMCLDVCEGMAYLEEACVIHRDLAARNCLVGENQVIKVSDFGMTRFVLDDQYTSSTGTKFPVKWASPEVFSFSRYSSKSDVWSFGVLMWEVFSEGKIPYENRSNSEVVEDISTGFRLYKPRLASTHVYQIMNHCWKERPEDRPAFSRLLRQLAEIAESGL

[11] = target: Muscle, skeletal receptor tyrosine-protein kinase (Homo sapiens) (UniProt O15146); experiment: Inhibition of human MUSK assessed as residual activity at 1 uM using MBP as substrate by [gamma-33P]-ATP assay relative to control
Muscle, skeletal receptor tyrosine-protein kinase (Homo sapiens), sequence (O15146 whole entry, canonical isoform): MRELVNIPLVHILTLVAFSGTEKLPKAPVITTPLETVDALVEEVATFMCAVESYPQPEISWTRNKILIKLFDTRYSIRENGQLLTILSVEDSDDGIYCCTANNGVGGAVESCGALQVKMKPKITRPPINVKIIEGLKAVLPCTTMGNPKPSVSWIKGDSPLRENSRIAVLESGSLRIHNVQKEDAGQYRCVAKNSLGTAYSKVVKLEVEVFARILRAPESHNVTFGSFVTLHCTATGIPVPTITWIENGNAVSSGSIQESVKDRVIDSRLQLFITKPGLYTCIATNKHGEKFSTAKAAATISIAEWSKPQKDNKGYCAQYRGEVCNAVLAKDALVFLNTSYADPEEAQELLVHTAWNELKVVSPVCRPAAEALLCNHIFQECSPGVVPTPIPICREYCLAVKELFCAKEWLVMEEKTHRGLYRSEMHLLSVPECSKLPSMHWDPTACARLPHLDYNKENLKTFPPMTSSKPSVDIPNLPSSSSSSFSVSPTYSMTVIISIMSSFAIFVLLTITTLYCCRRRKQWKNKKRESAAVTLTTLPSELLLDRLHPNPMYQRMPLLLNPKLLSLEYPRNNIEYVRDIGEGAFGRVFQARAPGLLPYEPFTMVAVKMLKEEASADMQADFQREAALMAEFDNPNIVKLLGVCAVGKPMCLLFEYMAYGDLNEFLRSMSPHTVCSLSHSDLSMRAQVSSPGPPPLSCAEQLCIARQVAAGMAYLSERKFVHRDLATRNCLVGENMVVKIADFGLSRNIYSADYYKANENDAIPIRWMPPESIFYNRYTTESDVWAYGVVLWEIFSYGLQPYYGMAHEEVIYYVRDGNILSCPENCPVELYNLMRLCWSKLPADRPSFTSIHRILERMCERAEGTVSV

[12] = target: Phosphorylase b kinase gamma catalytic chain, liver/testis isoform (Homo sapiens) (UniProt P15735); experiment: Inhibition of human PHKgamma2 assessed as residual activity at 1 uM using MBP as substrate by [gamma-33P]-ATP assay relative to control
[13] = target: NUAK family SNF1-like kinase 1 (Homo sapiens) (UniProt O60285); experiment: Inhibition of human ARK5 assessed as residual activity at 1 uM using KKKVSRSGLYRSPSMPENLNRPR as substrate by [gamma-33P]-ATP assay relative to control
NUAK family SNF1-like kinase 1 (Homo sapiens), sequence (O60285 whole entry): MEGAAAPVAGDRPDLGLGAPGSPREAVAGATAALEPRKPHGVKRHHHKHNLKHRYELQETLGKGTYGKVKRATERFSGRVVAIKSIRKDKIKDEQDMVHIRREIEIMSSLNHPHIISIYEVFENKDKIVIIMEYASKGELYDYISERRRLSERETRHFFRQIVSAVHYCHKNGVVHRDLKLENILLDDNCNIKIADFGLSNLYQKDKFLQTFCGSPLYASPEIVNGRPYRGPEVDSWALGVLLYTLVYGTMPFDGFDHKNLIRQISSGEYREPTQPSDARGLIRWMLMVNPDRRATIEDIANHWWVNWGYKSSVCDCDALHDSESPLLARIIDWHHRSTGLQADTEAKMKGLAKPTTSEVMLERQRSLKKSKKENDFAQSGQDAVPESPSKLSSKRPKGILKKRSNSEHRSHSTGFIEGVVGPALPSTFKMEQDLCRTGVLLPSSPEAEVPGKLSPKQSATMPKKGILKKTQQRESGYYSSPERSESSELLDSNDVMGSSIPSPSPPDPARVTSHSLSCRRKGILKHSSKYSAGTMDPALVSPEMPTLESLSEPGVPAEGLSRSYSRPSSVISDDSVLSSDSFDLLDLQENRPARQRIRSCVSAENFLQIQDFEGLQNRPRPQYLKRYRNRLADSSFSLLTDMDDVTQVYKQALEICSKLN

[14] = target: Misshapen-like kinase 1 (Homo sapiens) (UniProt Q8N4C8); experiment: Inhibition of human MINK1 assessed as residual activity at 1 uM using MBP as substrate by [gamma-33P]-ATP assay relative to control
Misshapen-like kinase 1 (Homo sapiens), sequence (Q8N4C8 whole entry, looked up): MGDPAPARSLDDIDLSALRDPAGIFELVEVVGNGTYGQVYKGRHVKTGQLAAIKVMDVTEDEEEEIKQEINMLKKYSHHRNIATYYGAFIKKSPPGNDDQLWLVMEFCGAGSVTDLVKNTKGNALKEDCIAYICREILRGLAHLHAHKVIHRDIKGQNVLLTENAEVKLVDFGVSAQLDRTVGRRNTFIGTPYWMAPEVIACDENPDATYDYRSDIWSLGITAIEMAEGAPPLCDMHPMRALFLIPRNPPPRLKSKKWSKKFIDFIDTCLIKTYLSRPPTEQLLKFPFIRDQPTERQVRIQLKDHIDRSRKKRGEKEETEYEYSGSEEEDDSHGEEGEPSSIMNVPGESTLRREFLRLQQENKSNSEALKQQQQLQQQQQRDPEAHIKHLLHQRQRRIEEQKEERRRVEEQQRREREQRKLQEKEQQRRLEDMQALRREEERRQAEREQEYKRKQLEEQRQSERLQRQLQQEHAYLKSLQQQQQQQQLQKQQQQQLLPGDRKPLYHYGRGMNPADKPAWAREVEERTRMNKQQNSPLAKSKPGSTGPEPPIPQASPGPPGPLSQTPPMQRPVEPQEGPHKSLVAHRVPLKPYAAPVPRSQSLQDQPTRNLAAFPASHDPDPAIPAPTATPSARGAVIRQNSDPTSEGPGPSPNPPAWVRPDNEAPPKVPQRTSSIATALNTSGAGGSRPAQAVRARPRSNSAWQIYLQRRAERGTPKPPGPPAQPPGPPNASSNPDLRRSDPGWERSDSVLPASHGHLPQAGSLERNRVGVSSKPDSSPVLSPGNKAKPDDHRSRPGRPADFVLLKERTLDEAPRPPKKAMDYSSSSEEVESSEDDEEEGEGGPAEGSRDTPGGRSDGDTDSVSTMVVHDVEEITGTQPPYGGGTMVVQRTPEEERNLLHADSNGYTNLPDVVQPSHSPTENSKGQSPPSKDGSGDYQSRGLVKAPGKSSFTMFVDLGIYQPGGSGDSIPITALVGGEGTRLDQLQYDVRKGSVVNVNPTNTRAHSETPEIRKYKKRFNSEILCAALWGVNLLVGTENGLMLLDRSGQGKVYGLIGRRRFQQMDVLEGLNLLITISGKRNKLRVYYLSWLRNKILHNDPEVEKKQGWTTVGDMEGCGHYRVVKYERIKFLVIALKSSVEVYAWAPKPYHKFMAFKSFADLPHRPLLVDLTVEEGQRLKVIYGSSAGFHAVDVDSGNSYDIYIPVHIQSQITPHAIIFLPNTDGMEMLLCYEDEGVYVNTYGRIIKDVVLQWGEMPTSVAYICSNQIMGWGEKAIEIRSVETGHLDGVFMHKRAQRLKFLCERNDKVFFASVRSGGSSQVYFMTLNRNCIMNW

[15] = target: Mitogen-activated protein kinase 8 (Homo sapiens) (UniProt P45983); experiment: Inhibition of human JNK1 assessed as residual activity at 1 uM using ATF2 as substrate by [gamma-33P]-ATP assay relative to control
Mitogen-activated protein kinase 8 (Homo sapiens), sequence (P45983 whole entry): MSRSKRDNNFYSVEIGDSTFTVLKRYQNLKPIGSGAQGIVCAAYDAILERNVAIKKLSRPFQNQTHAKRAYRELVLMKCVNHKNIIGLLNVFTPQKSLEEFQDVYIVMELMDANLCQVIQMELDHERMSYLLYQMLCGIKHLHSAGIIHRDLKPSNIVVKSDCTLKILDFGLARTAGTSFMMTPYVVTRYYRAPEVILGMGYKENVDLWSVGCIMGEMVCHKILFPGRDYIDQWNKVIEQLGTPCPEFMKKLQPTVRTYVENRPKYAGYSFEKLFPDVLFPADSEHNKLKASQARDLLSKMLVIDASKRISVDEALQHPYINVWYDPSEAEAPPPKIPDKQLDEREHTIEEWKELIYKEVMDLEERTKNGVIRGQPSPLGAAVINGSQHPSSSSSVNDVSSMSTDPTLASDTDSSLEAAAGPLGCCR

[16] = target: CDK1/Cyclin E (Homo sapiens) (UniProt P06493+P24864); experiment: Inhibition of human CDK1/cyclinE assessed as residual activity at 1 uM using RB protein as substrate by [gamma-33P]-ATP assay relative to control; format: protein-complex assay
[17] = target: Inhibitor of nuclear factor kappa-B kinase subunit epsilon (Homo sapiens) (UniProt Q14164); experiment: Inhibition of human IKKepsilon assessed as residual activity at 1 uM using casein as substrate by [gamma-33P]-ATP assay relative to control
[18] = target: Serine/threonine-protein kinase tousled-like 1 (Homo sapiens) (UniProt Q9UKI8); experiment: Inhibition of human TLK1 assessed as residual activity at 1 uM using Histone H3 as substrate by [gamma-33P]-ATP assay relative to control
[19] = target: Ephrin type-A receptor 6 (Homo sapiens) (UniProt Q9UF33); experiment: Inhibition of human EPHA6 assessed as residual activity at 1 uM using poly[Glu:Tyr] (4:1) as substrate by [gamma-33P]-ATP assay relative to control
[20] = target: MAP/microtubule affinity-regulating kinase 3 (Homo sapiens) (UniProt P27448); experiment: Inhibition of human MARK3 assessed as residual activity at 1 uM using KKKVSRSGLYRSPSMPENLNRPR as substrate by [gamma-33P]-ATP assay relative to control
[21] = target: Maternal embryonic leucine zipper kinase (Homo sapiens) (UniProt Q14680); experiment: Inhibition of human MELK assessed as residual activity at 1 uM using KKLNRTLSFAEPG as substrate by [gamma-33P]-ATP assay relative to control
[22] = target: Dual specificity protein kinase CLK2 (Homo sapiens) (UniProt P49760); experiment: Inhibition of human CLK2 assessed as residual activity at 1 uM using MBP as substrate by [gamma-33P]-ATP assay relative to control
Dual specificity protein kinase CLK2 (Homo sapiens), sequence (P49760 whole entry, looked up): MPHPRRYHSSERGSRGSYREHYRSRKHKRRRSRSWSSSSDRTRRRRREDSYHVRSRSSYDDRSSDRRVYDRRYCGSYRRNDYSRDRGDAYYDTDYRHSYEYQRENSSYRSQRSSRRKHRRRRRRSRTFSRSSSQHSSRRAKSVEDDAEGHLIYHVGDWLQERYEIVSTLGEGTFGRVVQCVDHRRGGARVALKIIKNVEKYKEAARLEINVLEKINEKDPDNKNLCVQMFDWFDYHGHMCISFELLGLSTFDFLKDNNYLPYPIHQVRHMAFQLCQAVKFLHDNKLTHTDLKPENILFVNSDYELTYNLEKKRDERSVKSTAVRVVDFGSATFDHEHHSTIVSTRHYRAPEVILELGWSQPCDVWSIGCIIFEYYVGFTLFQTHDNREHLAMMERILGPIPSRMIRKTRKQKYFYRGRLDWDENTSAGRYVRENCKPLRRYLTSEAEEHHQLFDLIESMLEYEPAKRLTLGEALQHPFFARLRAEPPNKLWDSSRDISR

[23] = target: Receptor-interacting serine/threonine-protein kinase 2 (Homo sapiens) (UniProt O43353); experiment: Inhibition of human RIPK2 assessed as residual activity at 1 uM using MBP as substrate by [gamma-33P]-ATP assay relative to control
Receptor-interacting serine/threonine-protein kinase 2 (Homo sapiens), sequence (O43353 whole entry): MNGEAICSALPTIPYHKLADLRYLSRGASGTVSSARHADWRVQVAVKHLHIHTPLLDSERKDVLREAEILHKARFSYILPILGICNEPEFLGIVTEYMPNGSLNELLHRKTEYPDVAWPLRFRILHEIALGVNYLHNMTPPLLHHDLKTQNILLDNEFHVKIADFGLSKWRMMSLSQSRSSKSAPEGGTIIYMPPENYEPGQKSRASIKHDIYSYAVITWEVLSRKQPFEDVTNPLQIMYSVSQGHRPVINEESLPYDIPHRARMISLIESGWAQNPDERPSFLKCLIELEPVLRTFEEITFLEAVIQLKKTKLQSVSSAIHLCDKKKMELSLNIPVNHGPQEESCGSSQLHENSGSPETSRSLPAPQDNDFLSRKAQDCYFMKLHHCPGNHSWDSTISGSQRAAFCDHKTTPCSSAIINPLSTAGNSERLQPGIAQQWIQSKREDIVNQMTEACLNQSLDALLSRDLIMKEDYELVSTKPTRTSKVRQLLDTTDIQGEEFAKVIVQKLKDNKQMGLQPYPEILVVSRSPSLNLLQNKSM

`C(=C\c1ccccc1)/C[N+]12CN3CN(CN(C3)C1)C2` was tested, and the inhibition [1] was “inactive”, the Activity [2] was 113 to 122% and the Activity [3] was 107 to 112%. The Activity [4] was 95.9 to 108%, the Activity [5] was 90.1 to 93.2% and the Activity (TGF-beta receptor type-2) was 111 to 119%. It also gave an Activity [6] of 90.5 to 97%, an Activity [7] of 95.1 to 95.4% and an Activity [8] of 93.3 to 94.8%. The inhibition [9] was “inactive”, the Activity [10] was 91.3 to 92.2% and the Activity [11] was 89.6%.
`ClC/C=C/C[N+]12CN3CN(CN(C3)C1)C2` was tested, and the Activity [12] was 92.2 to 94.9%, the Activity [13] was 87.9 to 94.8% and the Activity [14] was 91.9 to 94.8%. For the same compound, the Activity [15] was 96 to 96.5%, the Activity [16] was 98.8 to 100% and the Activity [17] was 111 to 113%. The Activity [18] was 93.1 to 93.4%, the Activity [19] was 93.1 to 94% and the Activity [20] was 148 to 153%. The Activity [21] was 93.8 to 96.1%, the Activity [22] was 93.9 to 94.5% and the Activity [23] was 95.4 to 96.7%.
